Assay results as given in ChEMBL document CHEMBL1142850, “Hepatitis C virus NS3-4A serine protease inhibitors: use of a P2-P1 cyclopropyl alanine combination for improved potency” (Bioorg Med Chem Lett, 2005).
Numbered stars: 1 amine (or outer) side, 2 acyl side, 3 side chain; on linkers, the order of the positions; unused ones are H or OH. Square brackets hold non-standard residues; d marks the D form. Peptide text beside a SMILES is read from it. * marks the point of attachment. Isobutyloxycarbonyl = CC(C)COC(=O)*; Ala(cPr) = N[C@@H](CC1CC1)C(=O)O; X1 = CCCC(N[*:1])C(=O)C(=O)[*:2]; Ahp(2) = CCCCC[C@H](N)C(=O)O; Cba = N[C@@H](CC1CCC1)C(=O)O; Chg = N[C@H](C(=O)O)C1CCCCC1; Phg = N[C@H](C(=O)O)c1ccccc1; hLeu = CC(C)CC[C@H](N)C(=O)O

Target: NS3 (Hepatitis C virus, UniProt A3EZJ3)
Assay: Inhibitory activity against HCV NS3 serine protease 1
Set-up: species or system Hepacivirus hominis

Sequence of NS3 (A3EZJ3 whole entry): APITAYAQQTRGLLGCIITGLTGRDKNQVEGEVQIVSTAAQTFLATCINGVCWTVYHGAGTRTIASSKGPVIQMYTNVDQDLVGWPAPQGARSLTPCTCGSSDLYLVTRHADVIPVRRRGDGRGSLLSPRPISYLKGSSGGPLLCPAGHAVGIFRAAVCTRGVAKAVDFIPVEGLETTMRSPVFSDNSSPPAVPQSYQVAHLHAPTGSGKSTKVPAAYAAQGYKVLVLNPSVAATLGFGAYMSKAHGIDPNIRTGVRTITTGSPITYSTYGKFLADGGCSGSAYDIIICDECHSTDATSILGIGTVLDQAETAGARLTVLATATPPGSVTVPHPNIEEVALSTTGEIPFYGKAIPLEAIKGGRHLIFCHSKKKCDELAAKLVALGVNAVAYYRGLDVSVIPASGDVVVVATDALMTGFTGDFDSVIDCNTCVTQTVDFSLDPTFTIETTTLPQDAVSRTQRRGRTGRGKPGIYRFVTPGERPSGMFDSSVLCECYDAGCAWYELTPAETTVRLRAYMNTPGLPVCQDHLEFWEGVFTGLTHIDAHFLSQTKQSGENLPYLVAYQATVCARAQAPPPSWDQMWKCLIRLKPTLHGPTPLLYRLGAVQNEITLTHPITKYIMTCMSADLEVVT

| Ki [µM] | SMILES |
| --- | --- |
| 0.05 | CCCC(NC(=O)[C@H](CC1CC1)NC(=O)[C@@H](NC(=O)OCC(C)C)C1CCCCC1)C(=O)C(=O)NCC(=O)N[C@H](C(=O)O)c1ccccc1 (some centres undefined) (Isobutyloxycarbonyl-[Chg][Ala(cPr)][X1]G[Phg]-OH) |
| 0.14 | CCCC(NC(=O)[C@H](CC1CCC1)NC(=O)[C@@H](NC(=O)OCC(C)C)C1CCCCC1)C(=O)C(=O)NCC(=O)N[C@H](C(=O)O)c1ccccc1 (some centres undefined) (Isobutyloxycarbonyl-[Chg][Cba][X1]G[Phg]-OH) |
| 0.43 | CCCC(NC(=O)[C@H](CC1OCCCO1)NC(=O)[C@@H](NC(=O)OCC(C)C)C1CCCCC1)C(=O)C(=O)NCC(=O)N[C@H](C(=O)O)c1ccccc1 (some centres undefined) |
| 0.3 | CCCCC[C@H](NC(=O)[C@@H](NC(=O)OCC(C)C)C1CCCCC1)C(=O)NC(CCC)C(=O)C(=O)NCC(=O)N[C@H](C(=O)O)c1ccccc1 (some centres undefined) (Isobutyloxycarbonyl-[Chg][Ahp(2)][X1]G[Phg]-OH) |
| 0.25 | CCCC(NC(=O)[C@H](CC1SCCCS1)NC(=O)[C@@H](NC(=O)OCC(C)C)C1CCCCC1)C(=O)C(=O)NCC(=O)N[C@H](C(=O)O)c1ccccc1 (some centres undefined) |
| 2.3 | CCCC(NC(=O)[C@H](CC1SCc2ccccc2CS1)NC(=O)[C@@H](NC(=O)OCC(C)C)C1CCCCC1)C(=O)C(=O)NCC(=O)N[C@H](C(=O)O)c1ccccc1 (some centres undefined) |
| 0.31 | CCCC(NC(=O)[C@H](CCC(C)C)NC(=O)[C@@H](NC(=O)OCC(C)C)C1CCCCC1)C(=O)C(=O)NCC(=O)N[C@H](C(=O)O)c1ccccc1 (some centres undefined) (Isobutyloxycarbonyl-[Chg][hLeu][X1]G[Phg]-OH) |
| 0.3 | CCCC(NC(=O)[C@H](CC1OCCO1)NC(=O)[C@@H](NC(=O)OCC(C)C)C1CCCCC1)C(=O)C(=O)NCC(=O)N[C@H](C(=O)O)c1ccccc1 (some centres undefined) |
| 0.09 | CCCC(NC(=O)[C@H](CC1SCCS1)NC(=O)[C@@H](NC(=O)OCC(C)C)C1CCCCC1)C(=O)C(=O)NCC(=O)N[C@H](C(=O)O)c1ccccc1 (some centres undefined) |
